# Measured values taken from patent publication US20240408169A1 (priority 2023, published 2024).
# *1 amine or outer side, *2 acyl side, *3 side chain or, on linkers, in order; H or OH if unused. Where a SMILES comes first, the peptide text is derived from it. Bridges are numbered along the chain shown (N, C = ends). [ ]: non-standard residue; d: D form. The star is where a group is joined. X140 = CN([C@@H](Cc1cc(Cl)ccc1-c1ccc(Oc2cccnc2)cc1)C(=O)[*:2])[*:1]; X82 = CN([C@@H](Cc1cc(Cl)ccc1-c1cnn(S(C)(=O)=O)c1)C(=O)[*:2])[*:1]; X177 = CN([C@@H](Cc1cc(F)ccc1C1=CC2CCC(C1)N2)C(=O)[*:2])[*:1]; X26 = CN([C@@H](Cc1cc(F)ccc1-c1cnn(C2CC2)c1)C(=O)[*:2])[*:1]; NMehhhLys(Me) = CN([C@@H](CCCCCCCN(C)[*:3])C(=O)[*:2])[*:1]; NMe(hhhLys) = CN([C@@H](CCCCCCCN[*:3])C(=O)[*:2])[*:1]; Cyclopropanecarbonyl(1-CF3) = O=C(C1(C(F)(F)F)CC1)*; cBuCO(3,3-F2-1-CF3) = O=C(C1(C(F)(F)F)CC(F)(F)C1)*; NMePhe(2,5-Cl2) = CN[C@@H](Cc1cc(Cl)ccc1Cl)C(=O)O; X4 = Cc1ccc(Cl)cc1C[C@@H](C(=O)[*:2])N(C)[*:1]; Pro(trans-4-F) = O=C(O)[C@@H]1C[C@@H](F)CN1; Pivaloyl(3,3,3-F3) = CC(C)(C(=O)*)C(F)(F)F; Gly(cPr) = N[C@H](C(=O)O)C1CC1
# Experiments:
# CyclinA2/CDK2 = target: T1, CyclinA2/CDK2 (Homo sapiens, UniProt P20248); experiment: Fluorescence Polarization (FP) competitive binding assay, Cyclin A2/Cdk2; settings: 8 nM Cyclin A2/Cdk2, 2 nM FAM probe; average of 2-3 independent experiments; read-out: Cyclin A FP IC50;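 also: plates equilibrated two hours at room temperature before polarization reading, IC50 fitted from eight-concentration compound titration curves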
# T1 construct: purchased CRELUX Protein Services
# CyclinB1/CDK1 = target: T2, CyclinB1/CDK1 (Homo sapiens, UniProt P14635); experiment: Fluorescence Polarization (FP) competitive binding assay, Cyclin B1/Cdk1; settings: 10 nM Cyclin B1/Cdk1, 2 nM FAM probe; average of 2-3 independent experiments; read-out: Cyclin B FP IC50;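 also: fluorescence polarization read after equilibration at room temperature, with IC50 taken from serially diluted dose-response curves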
# T2 construct: purchased Eurofins, discovery 14-450
# CyclinE1/CDK2 = target: T3, CyclinE1/CDK2 (Homo sapiens, UniProt P24864); experiment: Fluorescence Polarization (FP) competitive binding assay, Cyclin E1/Cdk2; settings: 10 nM Cyclin E1/Cdk2, 2 nM FAM probe; average of 2-3 independent experiments; read-out: Cyclin E FP IC50;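 also: readings taken after two-hour equilibration at room temperature in HEPES buffer with NaCl, DTT, NP-40 and BSA, IC50 fitted from eight-concentration serial dilution series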
# T3 construct: purchased Eurofins, discovery 14-475
# NCI-H1048 cells = experiment: MTT proliferation assay, NCI-H1048; assay type: cell-based; settings: 5 days compound exposure, 1:3 serial dilution starting at 10 μM;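 also: Dose-response in 96-well plates over 8 or 10 concentration points, with exposure spanning 3-4 cell doublings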
# OVCAR3 cells = experiment: MTT proliferation assay, OVCAR3; assay type: cell-based; settings: 5 days compound exposure, 1:3 serial dilution starting at 10 μM;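 also: compound given as an 8- or 10-point series, one day after plating, with exposure covering roughly 3-4 cell doublings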
SMILES,IC50 (CyclinA2/CDK2),IC50 (CyclinB1/CDK1),IC50 (CyclinE1/CDK2),GI50 (NCI-H1048 cells),GI50 (OVCAR3 cells)
"CC(C)C[C@@H]1NC(=O)[C@@H](N(C)C(=O)[C@@H](NC(=O)[C@@H]2C[C@@H](F)CN2C(=O)C2(C(F)(F)F)CC(F)(F)C2)C2CC2)CCCCCCCN(C)C(=O)[C@H](Cc2cc(Cl)ccc2-c2ccc(Oc3cccnc3)cc2)N(C)C1=O [Example 385] ({cBuCO(3,3-F2-1-CF3)}-[Pro(trans-4-F)][Gly(cPr)][NMehhhLys(Me)]L[X140]; lactam 3-C)",0.02 µM,0.02 µM,1.63 µM,0.03 µM,0.02 µM
"CC(C)C[C@@H]1NC(=O)[C@@H](N(C)C(=O)[C@@H](NC(=O)[C@@H]2C[C@@H](F)CN2C(=O)C2(C(F)(F)F)CC(F)(F)C2)C2CC2)CCCCCCCN(C)C(=O)[C@H](Cc2cc(F)ccc2C2=CC3CCC(C2)N3)N(C)C1=O (stereo partly drawn) [Example 165, (2S,4R)—N-((1S)-2-(((3S,6S,9S)-3-(2-(8-azabicyclo[3.2.1]oct-2-en-3-yl)-5-fluorobenzyl)-6-isobutyl-1,4-dimethyl-2,5,8-trioxo-1,4,7-triazacyclohexadecan-9-yl)(methyl)amino)-1-cyclopropyl-2-oxoethyl)-1-(3,3-difluoro-1-(trifluoromethyl)cyclobutane-1-carbonyl)-4-fluoropyrrolidine-2-carboxamide] ({cBuCO(3,3-F2-1-CF3)}-[Pro(trans-4-F)][Gly(cPr)][NMehhhLys(Me)]L[X177]; lactam 3-C)",0.11 µM,0.02 µM,5.47 µM,0.34 µM,1.67 µM
"CC(C)C[C@@H]1NC(=O)[C@@H](N(C)C(=O)[C@@H](NC(=O)[C@@H]2C[C@@H](F)CN2C(=O)C2(C(F)(F)F)CC(F)(F)C2)C2CC2)CCCCCCCNC(=O)[C@H](Cc2cc(F)ccc2-c2cnn(C3CC3)c2)N(C)C1=O [Example 213] ({cBuCO(3,3-F2-1-CF3)}-[Pro(trans-4-F)][Gly(cPr)][NMe(hhhLys)]L[X26]; lactam 3-C)",0.03 µM,0.02 µM,0.19 µM,0.01 µM,0.01 µM
CC(C)C[C@@H]1NC(=O)[C@@H](N(C)C(=O)[C@@H](NC(=O)[C@@H]2C[C@@H](F)CN2C(=O)C2(C(F)(F)F)CCC2)C2CC2)CC=CCCCCN(C)C(=O)[C@H](Cc2cc(F)cnc2OC2CC2)N(C)C1=O [Example 133],0.47 µM,0.02 µM,0.34 µM,0.34 µM,0.26 µM
CC(=O)N1CC=C(c2ccc(F)cc2C[C@H]2C(=O)N(C)CCCCC=CC[C@H](N(C)C(=O)[C@@H](NC(=O)[C@@H]3C[C@@H](F)CN3C(=O)C3(C(F)(F)F)CCC3)C3CC3)C(=O)N[C@@H](CC(C)C)C(=O)N2C)CC1 [Example 42],0.04 µM,0.02 µM,0.44 µM,0.07 µM,0.21 µM
"CC(C)C[C@@H]1NC(=O)[C@@H](N(C)C(=O)[C@@H](NC(=O)[C@@H]2C[C@@H](F)CN2C(=O)C(C)(C)C(F)(F)F)C2CC2)CCCCCCCN(C)C(=O)[C@H](Cc2cc(Cl)ccc2-c2cnn(S(C)(=O)=O)c2)N(C)C1=O [Example 301] ({Pivaloyl(3,3,3-F3)}-[Pro(trans-4-F)][Gly(cPr)][NMehhhLys(Me)]L[X82]; lactam 3-C)",0.04 µM,0.02 µM,0.32 µM,0.02 µM,0.02 µM
"Cc1ccc(Cl)cc1C[C@H]1C(=O)N(C)CCCCCCC[C@H](N(C)C(=O)[C@@H](NC(=O)[C@@H]2C[C@@H](F)CN2C(=O)C2(C(F)(F)F)CC(F)(F)C2)C2CC2)C(=O)N[C@@H](CC(C)C)C(=O)N1C [Example 263] ({cBuCO(3,3-F2-1-CF3)}-[Pro(trans-4-F)][Gly(cPr)][NMehhhLys(Me)]L[X4]; lactam 3-C)",0.03 µM,0.02 µM,0.2 µM,0.03 µM,0.04 µM
"CC(C)C[C@@H]1NC(=O)[C@@H](N(C)C(=O)[C@@H](NC(=O)[C@@H]2C[C@@H](F)CN2C(=O)C2(C(F)(F)F)CC2)C2CC2)CCCCCCCNC(=O)[C@H](Cc2cc(Cl)ccc2Cl)N(C)C1=O [Example 9] ({Cyclopropanecarbonyl(1-CF3)}-[Pro(trans-4-F)][Gly(cPr)][NMe(hhhLys)]L[NMePhe(2,5-Cl2)]; lactam 3-C)",0.25 µM,0.02 µM,0.4 µM,0.08 µM,0.11 µM
"CC(C)C[C@@H]1NC(=O)[C@@H](N(C)C(=O)[C@@H](NC(=O)[C@@H]2C[C@@H](F)CN2C(=O)C2(C(F)(F)F)CC2)C2CC2)CC=CCCCCNC(=O)[C@H](Cc2cc(Cl)ccc2Cl)N(C)C1=O (single isomer, unassigned) [Example 5-P1]",0.79 µM,0.02 µM,0.7 µM,0.39 µM,0.69 µM
